Results reported in patent publication US9139532B2, “Pyrazolyl guanidine F1F0-atpase inhibitors and therapeutic uses thereof” (Lycera Corporation, priority 2010, dated 2015).
Like-named read-outs stand apart in the source and are kept apart here.

Columns and labels:
[1] = target: T1, F1F0-ATPase (Bos taurus, UniProt P13621); experiment: Inhibition of F1F0-ATPase activity in synthesizing ATP; format: biochemical; settings: inhibition of ATP synthesis by F1F0-ATPase; read-out: ATP Syn IC50
T1 construct: from tissue

[2] = tested on: Ramos cells; experiment: Cytotoxicity in Ramos cells; format: cell-based; settings: cytotoxicity in Ramos cells, read-out: Ramos Cell EC50

IC50 [1]	Compound	EC50 ([2]; Homo sapiens)	EC50 [2]
< 10 µM	Cc1cccc(C(=O)N=C(Nc2cc(-c3ccc(F)cc3)n[nH]2)NC(C)(C)C)c1 [Compound A-552]	< 10 µM	–
< 10 µM	O=C(/N=C(\Nc1cc(-c2ccc(F)cc2)n[nH]1)NC1CCCC1)c1ccc(F)c(F)c1 [Compound A-260]	–	< 10 µM
< 10 µM	Cc1ccc(-c2cc(N/C(=N\C(=O)c3ccc(F)c(F)c3)NCc3ccc(F)cc3Cl)[nH]n2)cc1 [Compound A-479]	–	< 10 µM
< 10 µM	Cc1cc(C(=O)N=C(Nc2cc(-c3ccc(F)cc3)n[nH]2)NC(C)(C)C)ccc1F [Compound A-556]	< 10 µM	–
< 10 µM	CC(C)N/C(=N/C(=O)c1ccc(Cl)c(F)c1)Nc1cc(C(F)(F)F)n[nH]1 [Compound A-113]	< 10 µM	–
< 10 µM	CC(C)CN/C(=N/C(=O)c1cccnc1C(F)(F)F)Nc1cc(-c2ccc(F)cc2)[nH]n1 [Compound A-166]	–	< 10 µM
< 10 µM	CCC(CC)NC(=NC(=O)c1ccc(Cl)c(F)c1)Nc1cc(-c2cc(F)cc(F)c2)n[nH]1 [Compound A-350]	< 10 µM	–
< 10 µM	CC(C)N/C(=N/C(=O)c1ccc(F)c(F)c1)Nc1cc(C(F)F)[nH]n1 [Compound A-63]	> 10 µM	–
< 10 µM	CC(C)(C)N/C(=N/C(=O)c1cccc(C#N)c1)Nc1cc(C(F)(F)F)[nH]n1 [Compound A-73]	< 10 µM	–
< 10 µM	CC(N/C(=N/C(=O)c1ccc(Cl)cc1)Nc1cc(C(F)(F)F)[nH]n1)c1ccccc1Cl (centres unmarked) [Compound A-34]	< 10 µM	–
< 10 µM	N#Cc1ccc(C(=O)/N=C(/NCc2ccc(F)cc2Cl)Nc2cc(C(F)(F)F)[nH]n2)cc1 [Compound A-81]	< 10 µM	–
< 10 µM	O=C(/N=C(/NCC1CCCO1)Nc1cc(C(F)(F)F)[nH]n1)c1ccc(F)cc1 (centres unmarked) [Compound A-413]	–	> 10 µM
< 10 µM	CCc1ccc(-c2cc(N/C(=N\C(=O)c3ccc(F)c(F)c3)NC(C)(C)C)[nH]n2)cc1 [Compound A-431]	–	< 10 µM
< 10 µM	CC(C)(C)NC(=NC(=O)c1ccc(Cl)cc1)Nc1cc(-c2cccc(Cl)c2)[nH]n1 [Compound A-131]	< 10 µM	–
< 10 µM	CCOCC(C)N/C(=N/C(=O)c1ccc(F)c(F)c1)Nc1cc(-c2ccc(F)cc2)n[nH]1 (centres unmarked) [Compound A-267]	–	< 10 µM
< 10 µM	Cc1cc(-c2cc(N/C(=N\C(=O)c3ccc(C(F)(F)F)cc3)NC(C)(C)C)n[nH]2)ccc1F [Compound A-417]	–	< 10 µM
< 10 µM	COc1cccc(C(=O)N=C(NCC(C)(C)C)Nc2cc(-c3ccc(F)cc3)n[nH]2)c1 [Compound A-516]	< 10 µM	–
< 10 µM	CC(C)CN/C(=N/C(=O)c1ccc(F)cc1)Nc1cc(-c2ccc(Cl)cc2)n[nH]1 [Compound A-254]	–	< 10 µM
< 10 µM	CC(C)(C)NC(=NC(=O)c1cccc(C(F)(F)F)c1)Nc1cc(-c2ccc(F)cc2)n[nH]1 [Compound A-448]	< 10 µM	–
< 10 µM	CC(C)(C)NC(=NC(=O)c1ccccc1)Nc1cc(C(F)(F)F)n[nH]1 [Compound A-544]	< 10 µM	–
> 10 µM	O=C(/N=C(\Nc1cc(C(F)(F)F)[nH]n1)NC1CCC(O)CC1)c1ccc(Cl)c(F)c1 (centres unmarked) [Compound A-557]	–	> 10 µM
< 10 µM	CC(C)(C)N/C(=N/C(=O)c1ccc(C(F)(F)F)cc1)Nc1cc(C(F)F)[nH]n1 [Compound A-53]	< 10 µM	–
< 10 µM	O=C(N=C(Nc1cc(-c2cc(F)cc(F)c2)n[nH]1)NC1CCCC1)c1cccc(F)c1 [Compound A-369]	< 10 µM	–
< 10 µM	O=C(/N=C(/NCC(F)(F)F)Nc1cc(C(F)(F)F)[nH]n1)c1ccc(C(F)(F)F)cc1 [Compound A-1]	< 10 µM	–
< 10 µM	Cc1ccc(-c2cc(NC(=NC(=O)c3ccc(C(F)(F)F)cc3)NC(C)(C)C)[nH]n2)cc1 [Compound A-426]	> 10 µM	–

Continued, compound first:

Compound	IC50 [1]	EC50 ([2]; Homo sapiens)	EC50 [2]
CCC(C)(C)N/C(=N/C(=O)c1ccc(Cl)cc1)Nc1cc(C(F)(F)F)[nH]n1 [Compound A-123]	< 10 µM	< 10 µM	–
CCOCC(C)NC(=NC(=O)c1ccc(F)c(F)c1)Nc1cc(-c2ccc(Cl)cc2)n[nH]1 (centres unmarked) [Compound A-258]	< 10 µM	–	< 10 µM
CC(C)N/C(=N/C(=O)c1ccc(C(F)(F)F)cc1)Nc1cc(-c2ccc(Cl)cc2)n[nH]1 [Compound A-241]	< 10 µM	–	< 10 µM
CC(C)(C)N/C(=N/C(=O)c1ccc(F)c(F)c1)Nc1cc(-c2cccc(C(F)(F)F)c2)[nH]n1 [Compound A-423]	< 10 µM	–	< 10 µM
O=C(/N=C(/Nc1cc(C(F)(F)F)n[nH]1)NC1CCS(=O)(=O)C1)c1ccc(Cl)c(F)c1 (centres unmarked) [Compound A-121]	< 10 µM	> 10 µM	–
CC(C)(C)NC(=NC(=O)c1cccc(F)c1)Nc1cc(-c2ccc(Cl)cc2)n[nH]1 [Compound A-133]	< 10 µM	< 10 µM	–
COC[C@H](C)N/C(=N/C(=O)c1ccc(C)cc1)Nc1cc(C(F)(F)F)[nH]n1 [Compound A-534]	< 10 µM	–	< 10 µM
O=C(/N=C(/NCc1ccc(Cl)cc1F)Nc1cc(C(F)(F)F)[nH]n1)c1ccc(Cl)cc1 [Compound A-33]	< 10 µM	< 10 µM	–
O=C(/N=C(\Nc1cc(C(F)(F)F)[nH]n1)NC1CCCC1)c1ccc(Cl)cc1 [Compound A-122]	< 10 µM	< 10 µM	–
CC(C)(C)N/C(=N/C(=O)c1ccc(S(C)(=O)=O)cc1)Nc1cc(-c2ccc(F)cc2)n[nH]1 [Compound A-498]	< 10 µM	–	< 10 µM
CC(C)(C)CN/C(=N/C(=O)c1ccc(C(F)F)cc1)Nc1cc(C(F)(F)F)[nH]n1 [Compound A-66]	< 10 µM	< 10 µM	–
O=C(N=C(Nc1cc(F)cc(Cl)c1)Nc1cc(-c2cccc(Cl)c2)[nH]n1)c1ccc(F)c(F)c1 [Compound A-442]	< 10 µM	< 10 µM	–
CC(C)CN/C(=N/C(=O)c1ccc(Cl)c(F)c1)Nc1cc(-c2ccc(F)cc2)n[nH]1 [Compound A-220]	< 10 µM	–	< 10 µM
CC1(N/C(=N/C(=O)c2ccc(Cl)cc2)Nc2n[nH]c3ccccc23)CCC1 [Compound A-38]	< 10 µM	< 10 µM	–
CC(C)(CO)N/C(=N/C(=O)c1ccc(F)cc1)Nc1cc(C(F)(F)F)[nH]n1 [Compound A-531]	< 10 µM	–	> 10 µM
O=C(/N=C(\Nc1cc(C(F)(F)F)[nH]n1)NC1CCCCCC1)c1ccc(F)c(F)c1 [Compound A-41]	< 10 µM	< 10 µM	–
CC(C)CN/C(=N/C(=O)c1cccc(F)c1)Nc1cc(-c2ccc(F)cc2)n[nH]1 [Compound A-257]	< 10 µM	–	< 10 µM
CC(C)(C)c1n[nH]c(NC(=NC(=O)c2ccc(C(F)(F)F)cc2)NCc2ccc(F)cc2Cl)c1F [Compound A-335]	< 10 µM	< 10 µM	–

Compound	IC50 [1]	EC50 ([2]; Homo sapiens)	EC50 [2]
CCC(C)CN/C(=N/C(=O)c1ccc(C(F)(F)F)cc1)Nc1cc(-c2ccc(C)c(F)c2)n[nH]1 (centres unmarked) [Compound A-330]	> 10 µM	–	> 10 µM
COCC(C)NC(=NC(=O)c1ccc(F)cc1)Nc1cc(-c2cc(F)cc(F)c2)n[nH]1 (centres unmarked) [Compound A-275]	< 10 µM	–	< 10 µM
COCC(C)NC(=NC(=O)c1ccnc(N2CCCC2)c1)Nc1cc(-c2ccc(F)cc2)[nH]n1 (centres unmarked) [Compound A-484]	< 10 µM	< 10 µM	–
O=C(N=C(NCc1ccc(F)cc1Cl)Nc1cc(-c2ccc(F)cc2)n[nH]1)c1cccc(Cl)c1 [Compound A-452]	< 10 µM	< 10 µM	–
CC(C)CNC(=NC(=O)c1ccc(Cl)c(F)c1)Nc1cc(-c2ccc(Cl)cc2)n[nH]1 [Compound A-381]	< 10 µM	< 10 µM	–
O=C(/N=C(/NCc1ccc(Cl)c(F)c1)Nc1cc(C(F)(F)F)[nH]n1)c1ccc(F)c(F)c1 [Compound A-26]	< 10 µM	< 10 µM	–
CC1(N/C(=N/C(=O)c2ccc(Cl)cc2)Nc2cc(C(F)(F)F)[nH]n2)CCC1 [Compound A-6]	< 10 µM	< 10 µM	–
CC(C)NC(=NC(=O)c1cccc(C#N)c1)Nc1cc(-c2ccc(Cl)cc2)n[nH]1 [Compound A-305]	< 10 µM	< 10 µM	–
O=C(/N=C(/Nc1cc(F)cc(Cl)c1)Nc1cc(-c2ccccc2)n[nH]1)c1ccc(Cl)c(F)c1 [Compound A-482]	< 10 µM	–	< 10 µM
O=C(/N=C(\Nc1cc(-c2cc(F)cc(F)c2)n[nH]1)NC1CCCC1)c1ccc(F)cc1 [Compound A-243]	< 10 µM	–	< 10 µM
O=C(/N=C(/Nc1cc(F)cc(Cl)c1)Nc1cc(C(F)F)[nH]n1)c1ccc(Cl)cc1 [Compound A-57]	< 10 µM	< 10 µM	–
CC(N/C(=N/C(=O)c1ccc(Cl)cc1)Nc1cc(C(F)(F)F)[nH]n1)c1ccc(Cl)cc1 (centres unmarked) [Compound A-36]	< 10 µM	< 10 µM	–
CCC(C)N/C(=N/C(=O)c1ccc(F)c(F)c1)Nc1cc(-c2ccc(Cl)cc2)n[nH]1 (centres unmarked) [Compound A-225]	< 10 µM	–	< 10 µM
COC[C@H](C)N/C(=N/C(=O)c1ccc(O)cc1)Nc1cc(-c2ccc(F)cc2)n[nH]1 [Compound A-492]	< 10 µM	–	< 10 µM
CC(C)(C)N/C(=N/C(=O)c1ccc(F)c(F)c1)Nc1cc(-c2ccc(Cl)cc2)[nH]n1 [Compound A-137]	< 10 µM	–	< 10 µM
CC(C)(C)N/C(=N/C(=O)c1ccc(S(N)(=O)=O)cc1)Nc1cc(-c2ccc(F)cc2)n[nH]1 [Compound A-375]	< 10 µM	–	< 10 µM
Cc1cc(NC(=NC(=O)c2ccc(Cl)c(F)c2)NC(C)(C)C)[nH]n1 [Compound A-181]	< 10 µM	< 10 µM	–
O=C(/N=C(\Nc1cc(C(F)(F)F)[nH]n1)NC1CCCC1)c1cccc(C(F)(F)F)c1 [Compound A-75]	< 10 µM	< 10 µM	–
